We go through 17 compounds from article PMC9920808, “Impact of the Substitution Pattern at the Basic Center and Geometry of the Amine Fragment on 5-HT6 and D3R Affinity in the 1H-Pyrrolo[3,2-c]quinoline Series” (Molecules, 2023).

The target of experiment [1] is T1, human 5-HT6R (Homo sapiens, UniProt P50406).
T1 construct: expressed in transfected cells
The experiment is described as follows: [3H]-LSD radioligand binding assay at 5-HT6R in HEK293 cell membranes. The note with it: HEK293 cells with stable expression of human 5-HT6R, mean of at least three experiments (SEM ≤ 18%). As to the method:
(§1) The biological evaluation was initiated by assessing the affinity of the compounds for 5-HT6R in the [^3H]-LSD radioligand binding assay. Experiments were performed in a stable HEK293 cell line expressing the human 5-HT6R [10]. […] Experiments were performed in Chinese hamster ovary (CHO) cells with the stable expression of human D3R (Eurofins, Celle-L’Evescault, France).
HEK293 cells with stable expression of human 5-HT6 receptors (prepared with the use of Lipofectamine 2000) were maintained at 37 °C in a humidified atmosphere with 5% CO2 and grown in Dulbecco’s modified Eagle medium containing 10% dialyzed fetal bovine serum and 500 μg/mL G418 sulfate. For membrane preparation, cells were sub-cultured in 150 cm^2 flasks, grown to 90% confluence, washed twice with phosphate buffered saline (PBS), prewarmed to 37 °C, and pelleted by centrifugation (200× g) in PBS containing 0.1 mM EDTA and 1 mM dithiothreitol. Prior to membrane preparation, pellets were stored at −80 °C.
The cell pellets were thawed and homogenized in 10 volumes of assay buffer using an Ultra Turrax tissue homogenizer(IKA, Warsaw, Poland), centrifuged twice at 35,000× g for 15 min at 4 °C, and incubated for 15 min at 37 °C between centrifugation rounds. The composition of the assay buffers was 50 mM Tris HCl, 0.5 mM EDTA, and 4 mM MgCl2. The assays were incubated in a total volume of 200 μL in 96-well microtiter plates for 1 h at 37 °C. The process of equilibration was terminated by rapid filtration through Unifilter plates with a 96-well cell harvester, and radioactivity retained on the filters was quantified on a Microbeta plate reader (PerkinElmer, Waltham, MA, USA). For displacement studies, the assay samples contained as radioligands (PerkinElmer, USA) 2 nM [^3H]-LSD (83.6 Ci/mmol). Nonspecific binding was defined with 10 μM methiothepine. Each compound was tested in triplicate at 7 concentrations (10^−10 to 10^−4 M). The inhibition constants (Ki) were calculated from the Cheng−Prusoff equation [30]. […]

The target of another experiment is human D3R (Homo sapiens, UniProt P35462). Description: D3R screening binding with [3H]-methylspiperone in CHO cells (Eurofins). The note with it: percentage displacement at 10^-6 M; CHO cells with stable expression of human D3R; read-out: %inh Binding to D3R @1μM. As to the method:
as §1

The next experiment has as its target T2, human serotonin 5-HT6R (Homo sapiens, UniProt P50406).
T2 construct: host or cells: 1321N1 (frozen recombinant cells)
The experiment is described as follows: cAMP cellular assay, inhibition of 5-CT-induced cAMP production in 1321N1 cells. In kind it is cell-based. The following applies: 1321N1 cells expressing human 5-HT6R; cAMP production induced by 5-CT (1000 nM); read-out: Kb, antagonist properties at 5-HT6R. As to the method:
The experiments were performed in 1321N1 cells expressing the human serotonin 5-HT6R.
The functional properties of compounds on 5-HT6R were evaluated using its ability to inhibit cAMP production induced by 5-CT (1000 nM), a 5-HT6R agonist. The compound was tested in triplicate at 8 concentrations (10^−11 to 10^−4 M). The level of adenylyl cyclase activity was measured using frozen recombinant 1321N1 cells expressing the human serotonin 5-HT6R (PerkinElmer). Total cAMP was measured using the LANCE cAMP detection kit (PerkinElmer), according to the manufacturer’s directions. For quantification of cAMP levels, cells (5 μL) were incubated with a mixture of compounds (5 μL) for 30 min at room temperature in 384-well white opaque microtiter plates. After incubation, the reaction was stopped, and cells were lysed by the addition of 10 μL of working solution (5 μL of Eu-cAMP and 5 μL of ULight-anti-cAMP). The assay plate was incubated for 1 h at room temperature. Time-resolved fluorescence resonance energy transfer (TR-FRET) was detected by an Infinite M1000 Pro (Tecan, Männedorf, Switzerland) using instrument settings from LANCE cAMP detection kit manual(PerkinElmer, Waltham, MA, USA).
On the technique in general: cAMP levels reflect the balance of adenylyl cyclase and phosphodiesterase activity.

In experiment [2] the target is T1, human 5-HT6R. Description: 5-HT6R constitutive activity at Gs signaling in NG108-15 cells (CAMYEL BRET cAMP sensor). In kind it is cell-based. The note with it: NG108-15 cells transiently expressing 5-HT6R; Figure 3. As to the method: The experiments were performed in 1321N1 cells expressing the human serotonin 5-HT6R. […] Neuroblastoma cells (NG108-15) were grown in DMEM (Dulbecco’s modified Eagle’s medium) supplemented with 10% heat-inactivated fetal bovine serum, 2% HAT (hypoxanthine/aminopterin/thymidine, Life technologies), glutamine, and antibiotics at 37 °C under 5% of CO2. cAMP measurement was performed in cells transiently transfected with a construct expressing the CAMYEL bioluminescence resonance energy transfer (BRET) sensor for cAMP [44] (3 μg DNA/million cells) alone or in combination with a plasmid encoding the human 5-HT6R (0.5 μg DNA/million cells). Transfection of the NG108-15 cells was conducted in suspension using Lipofectamine 2000, according to the manufacturer’s protocol. Plasmids and lipofectamine were diluted in Opti-MEM Reduced Serum Media (Gibco) and incubated at room temperature for 20 min before being added to the cells. […] Coelanterazine H (Molecular Probes) was added in each well at a final concentration of 5 μM and incubated at room temperature for 5 min before measuring BRET in a Mithras LB 940 plate reader (Berthold Technologies, Bad Wildbad, Germany). The decrease in CAMYEL BRET induced by the coexpression of the probe with the 5-HT6R as compared to the BRET measured in cells expressing the probe alone was used as an index of the 5-HT6R constitutive activity.
A general note: BRET reads energy transfer from a luciferase to a nearby fluorophore.

For a further experiment, the target named is 5-HT6R. The following applies: Figure 1; ref 25 (SB737050), ref 19 (I), ref 26 (PZ-1643), ref 27 (CPPQ); cited from earlier work.
In a further experiment the target is D3R. Further details: method as in earlier work. The following applies: Figure 1; ref 25 (SB737050), ref 19 (I), ref 26 (PZ-1643); cited from earlier work.
For another experiment, the target named is D2R. The following applies: Figure 1; ref 25 (SB737050), ref 19 (I), ref 26 (PZ-1643), ref 27 (CPPQ); cited from earlier work.

Molecules are shown by their SMILES. Counter-ions that a name gives are not always drawn.

By Ki is commonly meant the equilibrium dissociation constant of an inhibitor or competing ligand from its target. High values mean a looser hold on the target, low ones a stronger hold on the target. A word on the Kb: it is the affinity of an antagonist, worked out from how it opposes an agonist.

T1 sequence (P50406 whole entry): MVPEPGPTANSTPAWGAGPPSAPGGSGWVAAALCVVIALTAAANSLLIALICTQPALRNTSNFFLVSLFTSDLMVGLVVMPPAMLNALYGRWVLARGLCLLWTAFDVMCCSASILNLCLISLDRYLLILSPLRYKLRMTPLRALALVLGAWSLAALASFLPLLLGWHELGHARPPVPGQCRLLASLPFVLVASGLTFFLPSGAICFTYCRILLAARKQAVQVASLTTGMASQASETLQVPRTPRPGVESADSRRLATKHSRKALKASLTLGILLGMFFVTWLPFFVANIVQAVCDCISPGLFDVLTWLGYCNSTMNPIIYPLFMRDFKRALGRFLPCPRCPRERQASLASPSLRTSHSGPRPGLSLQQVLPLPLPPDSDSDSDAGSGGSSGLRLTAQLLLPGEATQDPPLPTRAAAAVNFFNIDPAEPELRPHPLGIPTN
human D3R, sequence (P35462 whole entry): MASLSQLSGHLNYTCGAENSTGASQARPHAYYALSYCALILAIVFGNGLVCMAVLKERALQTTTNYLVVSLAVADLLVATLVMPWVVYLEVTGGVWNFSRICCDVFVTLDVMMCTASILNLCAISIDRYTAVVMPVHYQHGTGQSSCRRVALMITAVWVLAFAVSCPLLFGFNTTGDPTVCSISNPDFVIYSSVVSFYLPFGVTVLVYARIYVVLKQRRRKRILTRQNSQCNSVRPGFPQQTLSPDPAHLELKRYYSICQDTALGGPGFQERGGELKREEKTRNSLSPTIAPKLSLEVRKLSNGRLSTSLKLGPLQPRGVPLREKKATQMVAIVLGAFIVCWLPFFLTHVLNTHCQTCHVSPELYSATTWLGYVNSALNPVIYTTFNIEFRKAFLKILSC
T2 sequence (P50406 whole entry): as the sequence (P50406 whole entry) above

As for `CCN1CC[C@@H](CNc2nc3ccccc3c3c2ccn3S(=O)(=O)c2cccc(Cl)c2)C1` [Compound 16, (S)-1-((3-chlorophenyl)sulfonyl)-N-((1-ethylpyrrolidin-3-yl)methyl)-1H-pyrrolo[3,2-c]quinolin-4-amine hydrochloride], the Ki on human 5-HT6R [1] is 64 nM.

On human 5-HT6R [1], `CC(C)CN1CCC[C@@H]1CNc1nc2ccccc2c2c1ccn2S(=O)(=O)c1cccc(Cl)c1.Cl` [Compound 17, (R)-1-((3-chlorophenyl)sulfonyl)-N-((1-isobutylpyrrolidin-2-yl)methyl)-1H-pyrrolo[3,2-c]quinolin-4-amine hydrochloride] had a Ki of 27 nM. Also, the inhibition at 1 µM on human D3R came out at 57%. Also, the Kb on human serotonin 5-HT6R stood at 3.8 nM. For the same compound, the “Impact on 5-HT6R-operated Gs signaling (constitutive activity)” value at human 5-HT6R [2] was “neutral antagonist”.

Turning to `O=S(=O)(c1cccc(Cl)c1)n1ccc2c(N[C@H]3CCN(CCC(F)(F)F)C3)nc3ccccc3c21` [Compound 12, (S)-1-((3-chlorophenyl)sulfonyl)-N-(1-(3,3,3-trifluoropropyl)pyrrolidin-3-yl)-1H-pyrrolo[3,2-c]quinolin-4-amine], the Ki at human 5-HT6R [1] turned out to be 556 nM.

At human 5-HT6R [1], `COCCCN1CCC[C@@H]1CNc1nc2ccccc2c2c1ccn2S(=O)(=O)c1cccc(Cl)c1` [Compound 21, (R)-1-((3-chlorophenyl)sulfonyl)-N-((1-(3-methoxypropyl)pyrrolidin-2-yl)methyl)-1H-pyrrolo[3,2-c]quinolin-4-amine] returned a Ki of 87 nM.

As for `C[C@@H](O)CN1CC[C@H](Nc2nc3ccccc3c3c2ccn3S(=O)(=O)c2cccc(Cl)c2)C1` [Compound 9, (R)-1-((S)-3-((1-((3-chlorophenyl)sulfonyl)-1H-pyrrolo[3,2-c]quinolin-4-yl)amino)pyrrolidin-1-yl)propan-2-ol], the Ki at human 5-HT6R [1] turned out to be 6 nM. Moreover, at human D3R, the inhibition at 1 µM is 54%.

As to `COc1cc2c(cc1NS(=O)(=O)c1ccc(-c3cccs3)cc1)CCN(C)CC2` [SB737050], the “pKi 5-HT6R” value on 5-HT6R is given as 9.0. Moreover, on D3R, the “pKi D3R” value is recorded as 7.9. Moreover, on D2R, the “pKi D2R” value is recorded as 7.7.

Regarding `CCN1CCC[C@H]1CNc1nc2ccccc2c2c1ccn2S(=O)(=O)c1cccc(Cl)c1` [Compound 14, (S)-1-((3-chlorophenyl)sulfonyl)-N-((1-ethylpyrrolidin-2-yl)methyl)-1H-pyrrolo[3,2-c]quinolin-4-amine hydrochloride], the affinity on human 5-HT6R [1] corresponds to a Ki of 72 nM.

Compound `O=S(=O)(c1cccc(Cl)c1)n1ccc2c(NC[C@H]3CCCN3CCO)nc3ccccc3c21` [Compound 19, (R)-2-(2-(((1-((3-chlorophenyl)sulfonyl)-1H-pyrrolo[3,2-c]quinolin-4 yl)amino)methyl)-pyrrolidin-1-yl)ethan-1-ol hydrochloride] returned a Ki on human 5-HT6R [1] of 58 nM.

Turning to `COCCCN1CC[C@H](Nc2nc3ccccc3c3c2ccn3S(=O)(=O)c2cccc(Cl)c2)C1` [Compound 11, (S)-1-((3-chlorophenyl)sulfonyl)-N-(1-(3-methoxypropyl)pyrrolidin-3-yl)-1H-pyrrolo[3,2-c]quinolin-4-amine], the Ki on human 5-HT6R [1] was 17 nM. On human D3R, the inhibition at 1 µM is 25%.

Compound `CC(C)CN1CCC[C@H]1CNc1nc2ccccc2c2c1ccn2S(=O)(=O)c1cccc(Cl)c1` [Compound 18, (S)-1-((3-chlorophenyl)sulfonyl)-N-((1-isobutylpyrrolidin-2-yl)methyl)-1H-pyrrolo[3,2-c]quinolin-4-amine hydrochloride] returned a Ki on human 5-HT6R [1] of 65 nM. This lies in the double-digit nanomolar range.

For the compound `C[C@H](O)CN1CC[C@H](Nc2nc3ccccc3c3c2ccn3S(=O)(=O)c2cccc(Cl)c2)C1` [Compound 8, (S)-1-((S)-3-((1-((3-chlorophenyl)sulfonyl)-1H-pyrrolo[3,2-c]quinolin-4-yl)amino)pyrrolidin-1-yl)propan-2-ol], affinity at human 5-HT6R [1] was put at a Ki of 11 nM.

For `CCN1CC[C@H](CNc2nc3ccccc3c3c2ccn3S(=O)(=O)c2cccc(Cl)c2)C1` [Compound 15, (R)-1-((3-chlorophenyl)sulfonyl)-N-((1-ethylpyrrolidin-3-yl)methyl)-1H-pyrrolo[3,2-c]quinolin-4-amine hydrochloride], the Ki on human 5-HT6R [1] was 38 nM.

Compound `O=S(=O)(c1cccc(Cl)c1)n1ccc2c(N[C@H]3CCN(CCO)C3)nc3ccccc3c21` [Compound 10, (S)-2-(3-((1-((3-chlorophenyl)sulfonyl)-1H-pyrrolo[3,2-c]quinolin-4-yl)amino)pyrrolidin-1-yl)ethan-1-ol] displayed a Ki on human 5-HT6R [1] of 84 nM.

`CCN1CCC[C@@H]1CNc1nc2ccccc2c2c1ccn2S(=O)(=O)c1cccc(Cl)c1.Cl` [Compound 13, (R)-1-((3-chlorophenyl)sulfonyl)-N-((1-ethylpyrrolidin-2-yl)methyl)-1H-pyrrolo[3,2-c]quinolin-4-amine hydrochloride] showed a Ki on human 5-HT6R [1] of 27 nM. At human D3R, the inhibition at 1 µM amounted to 58%. In addition, the Kb on human serotonin 5-HT6R came out at 1.2 nM. Moreover, the “Impact on 5-HT6R-operated Gs signaling (constitutive activity)” value at human 5-HT6R [2] was “neutral antagonist”.

With `O=S(=O)(c1cccc(Cl)c1)n1ccc2c(NC[C@@H]3CCCN3CCO)nc3ccccc3c21` [Compound 20, (S)-2-(2-(((1-((3-chlorophenyl)sulfonyl)-1H-pyrrolo[3,2-c]quinolin-4 yl)amino)methyl)pyrrolidin-1-yl)ethan-1-ol hydrochloride], the affinity at human 5-HT6R [1] corresponds to a Ki of 77 nM.

Regarding `CN1Cc2c(ccc3c2ccn3S(=O)(=O)c2c(Cl)nc3sccn23)CC1CCO` (centres unmarked) [I], the “pKi 5-HT6R” value at 5-HT6R is 8.7. Further, the “pKi D3R” value on D3R is recorded as 9.0. On D2R, the “pKi D2R” value was 7.4.

With `O=S(=O)(c1cccc(Cl)c1)n1ccc2c(N[C@H]3CCNC3)nc3ccccc3c21` [CPPQ, (S)-1-((3-chlorophenyl)sulfonyl)-N-(pyrrolidin-3-yl)-1H-pyrrolo[3,2-c]quinolin-4-amine], the “pKi D2R” value at D2R is listed as 6.0.
